Test results as given in patent publication US10829796B2, “Bacteria identification and antimicrobial susceptibility test” (priority 2015, dated 2020).

System: bacteria in clinical bovine mastitis milk samples
Assay: Combined bacteria identification and antimicrobial susceptibility test (colour of wells, MIC) on clinical bovine mastitis milk samples
Type: cell-based
Experimental: Clinical bovine mastitis milk samples were collected by a vet clinic in South Island, New Zealand. Samples were stored in the freezer for several months and shipped frozen to the testing facility. In this Example, the term “clinical” means that dairy cows had clinical symptoms of an udder infection e.g. cow behaved unusual, milk clots, swollen udder among other typical symptoms. Testing was executed in microwell plate comprising of 24 wells (3×8 wells).
In addition, 20 ul of clinical mastitis sample was added to each well with a laboratory pipette.
(§1) Abbreviations • 1. 80 ul GC+10 ul Tell: 80 ul Giolitti Cantoni base broth+10 ul Tellurite solution (1%); • 2. 80 ul TSB/Esc/Fer Cit: 80 ul Tryptic soy broth containing 0.25% Esculin and 0.125% Ammonium Ferric Citrate; • 3. 80 ul TSB/Esc/Fer Cit+10 ul Genta: 80 ul Tryptic soy broth containing 0.25% Esculin and 0.125% Ammonium Ferric Citrate+10 ul of Gentamycin solution 10 mg/ml; • 4. 80 ul McC/PR25: 80 ul MacConkey broth (single strength) containing 0.0125% phenol red; and • 5. 80 ul TSB/PR25: 80 ul Tryptic soy broth containing 0.0125% phenol red. Bacteria Identification
Columns A to C and rows 1 and 2 were used for bacteria identification. A1: coagulase positive Staph; A2: Staphylococci; B1: Strep group D; B2: Strep group D; C1: general enrichment media (gram+ and gram-bacteria); C2: coliform bacteria.
Column A3 to A8: serial dilution of benzyl penicillin as potassium. Column B3 to B8: serial dilution of ceftiofur as hydrochloride. Column C3 to C8: serial dilution of cloxacillin as sodium. Antibiotic concentrations are listed as free form ranging between 4 ug/ml to 0.05 ug/ml.
Minimum inhibitory substance concentration (MIC) is here defined as the concentration if a colour change occurs between two wells (one well remains red with drug concentration 1, the other one yellow with drug concentration 2, whereas drug concentration 1 is larger than drug concentration 2) then the MIC is the value of drug concentration 1.
Table 21 indicates the microwell plate configuration #1; Drugs: Benzylpenicillin as potassium; Cloxacillin as sodium; Ceftiofur as hydrochloride; Drug concentration in each well (A3 to C8) is based on 80 μl composition+10 μl drug solution+20 μl clinical mastitis milk sample and equivalent to listed drug concentration in μg/ml; 20 ul of clinical bovine mastitis milk sample was added to each well (A1 to C8).
In addition, each well received one drop of clinical sample from a transfer pipette which was on average about 35 mg. This was determined through weighing the well plate prior and after the addition of clinical mastitis samples. This weight was then divided by 24.
as §1, with “•” for “Abbreviations •”, “red.” for “red. Bacteria Identification”
Columns A to C and rows 1 and 2 were used for bacteria identification. A1: coagulase positive Staph; A2: Staphylococci; B1: Strep Group D; B2: -; C1: general enrichment media (gram+ and gram-); C2: coliform bacteria.
Column A3 to A8: serial dilution of benzyl penicillin as potassium. Drug concentrations given as free form ranging between 4 ug/ml to 0.05 ug/ml. Column B3 to B8: serial dilution of ceftiofur as hydrochloride. Drug concentrations given as free form ranging between 4 ug/ml to 0.05 ug/ml. Column C3 to C8: serial dilution of cloxacillin as sodium. Drug concentrations given as free form ranging between 4 ug/ml to 0.05 ug/ml.

Cc1onc(-c2ccccc2Cl)c1C(=O)N[C@@H]1C(=O)N2[C@@H]1SC(C)(C)[C@@H]2C(=O)O [cloxacillin]
Colour of media in each well (ID 1, T = 22 h, 37° C., plate configuration #1, drug 0.05 μg/ml): yellow
Colour of media in each well (ID 1, T = 22 h, 37° C., plate configuration #1, drug 0.1 μg/ml): yellow
Colour of media in each well (ID 1, T = 22 h, 37° C., plate configuration #1, drug 0.5 μg/ml): red
Colour of media in each well (ID 1, T = 22 h, 37° C., plate configuration #1, drug 1 μg/ml): red
Colour of media in each well (ID 1, T = 22 h, 37° C., plate configuration #1, drug 2 μg/ml): red
Colour of media in each well (ID 1, T = 22 h, 37° C., plate configuration #1, drug 4 μg/ml): red
Colour of media in each well (ID 2, T = 48 h, 37° C., plate configuration #1, drug 0.05 μg/ml): yellow
Colour of media in each well (ID 2, T = 48 h, 37° C., plate configuration #1, drug 0.1 μg/ml): yellow
Colour of media in each well (ID 2, T = 48 h, 37° C., plate configuration #1, drug 0.5 μg/ml): red
Colour of media in each well (ID 2, T = 48 h, 37° C., plate configuration #1, drug 1 μg/ml): red
Colour of media in each well (ID 2, T = 48 h, 37° C., plate configuration #1, drug 2 μg/ml): red
Colour of media in each well (ID 2, T = 48 h, 37° C., plate configuration #1, drug 4 μg/ml): red
Colour of media in each well (ID 3, T = 22 h, 37° C., plate configuration #1, drug 0.05 μg/ml): yellow
Colour of media in each well (ID 3, T = 22 h, 37° C., plate configuration #1, drug 0.1 μg/ml): yellow
Colour of media in each well (ID 3, T = 22 h, 37° C., plate configuration #1, drug 0.5 μg/ml): red
Colour of media in each well (ID 3, T = 22 h, 37° C., plate configuration #1, drug 1 μg/ml): red
Colour of media in each well (ID 3, T = 22 h, 37° C., plate configuration #1, drug 2 μg/ml): yellow
Colour of media in each well (ID 3, T = 22 h, 37° C., plate configuration #1, drug 4 μg/ml): yellow
Colour of media in each well (ID 3, T = 23 h, 37° C., Table 34, drug 0.05 μg/ml): yellow
Colour of media in each well (ID 3, T = 23 h, 37° C., Table 34, drug 0.1 μg/ml): yellow
Colour of media in each well (ID 3, T = 23 h, 37° C., Table 34, drug 0.5 μg/ml): red
Colour of media in each well (ID 3, T = 23 h, 37° C., Table 34, drug 1 μg/ml): red
Colour of media in each well (ID 3, T = 23 h, 37° C., Table 34, drug 2 μg/ml): yellow
Colour of media in each well (ID 3, T = 23 h, 37° C., Table 34, drug 4 μg/ml): yellow
Colour of media in each well (ID 3, T~7 h, 37° C., Table 34, drug 0.05 μg/ml): red
Colour of media in each well (ID 3, T~7 h, 37° C., Table 34, drug 0.1 μg/ml): red
Colour of media in each well (ID 3, T~7 h, 37° C., Table 34, drug 0.5 μg/ml): red
Colour of media in each well (ID 3, T~7 h, 37° C., Table 34, drug 1 μg/ml): red
Colour of media in each well (ID 3, T~7 h, 37° C., Table 34, drug 2 μg/ml): red
Colour of media in each well (ID 3, T~7 h, 37° C., Table 34, drug 4 μg/ml): red
Colour of media in each well (ID 3, T~11 h, 37° C., Table 34, drug 0.05 μg/ml): red
Colour of media in each well (ID 3, T~11 h, 37° C., Table 34, drug 0.1 μg/ml): red
Colour of media in each well (ID 3, T~11 h, 37° C., Table 34, drug 0.5 μg/ml): red
Colour of media in each well (ID 3, T~11 h, 37° C., Table 34, drug 1 μg/ml): red
Colour of media in each well (ID 3, T~11 h, 37° C., Table 34, drug 2 μg/ml): red
Colour of media in each well (ID 3, T~11 h, 37° C., Table 34, drug 4 μg/ml): red
Colour of media in each well (ID 4, T = 22 h, 37° C., plate configuration #1, drug 0.05 μg/ml): yellow
Colour of media in each well (ID 4, T = 22 h, 37° C., plate configuration #1, drug 0.1 μg/ml): yellow
Colour of media in each well (ID 4, T = 22 h, 37° C., plate configuration #1, drug 0.5 μg/ml): red
Colour of media in each well (ID 4, T = 22 h, 37° C., plate configuration #1, drug 1 μg/ml): red
Colour of media in each well (ID 4, T = 22 h, 37° C., plate configuration #1, drug 2 μg/ml): red
Colour of media in each well (ID 4, T = 22 h, 37° C., plate configuration #1, drug 4 μg/ml): red
Colour of media in each well (ID 5, T = 23 h, 37° C., plate configuration #2, drug 0.05 μg/ml): yellow
Colour of media in each well (ID 5, T = 23 h, 37° C., plate configuration #2, drug 0.1 μg/ml): yellow
Colour of media in each well (ID 5, T = 23 h, 37° C., plate configuration #2, drug 0.5 μg/ml): red
Colour of media in each well (ID 5, T = 23 h, 37° C., plate configuration #2, drug 1 μg/ml): red
Colour of media in each well (ID 5, T = 23 h, 37° C., plate configuration #2, drug 2 μg/ml): red
Colour of media in each well (ID 5, T = 23 h, 37° C., plate configuration #2, drug 4 μg/ml): red
Colour of media in each well (ID 5 to 8, T = 0 h (prior incubation, reference), plate configuration #2, drug 0.05 μg/ml): red
Colour of media in each well (ID 5 to 8, T = 0 h (prior incubation, reference), plate configuration #2, drug 0.1 μg/ml): red
Colour of media in each well (ID 5 to 8, T = 0 h (prior incubation, reference), plate configuration #2, drug 0.5 μg/ml): red
